Assay results: patent US12157713B2, “Conjugated oligoelectrolytes as antimicrobial agents” (Nanyang Technological University, priority 2018, dated 2024)

test system: organism classes (Gram-negative, Gram-positive and fungi); assay: Single-dose screening summary by organism class; format: cell-based; conditions: 32 μg/mL; 0 = no activity
Description: (§1) Percentage growth inhibition of an individual sample was calculated based on growth in a reference well determined from negative controls (media only) and positive controls (bacterial/fungal media without inhibitors). Negative inhibition values indicate that the growth rate (or OD600) is higher compared to the reference growth (bacteria/fungi only, set to 0% inhibition). The growth rates for all bacteria and fungi may vary at −/+10%, which were within the reported normal distribution of bacterial/fungal growth. Any significant variations (or outliers/hits) were identified by the modified Z-Score, and the active compounds were selected by a combination of inhibition values and Z-Score.
Z-Score analysis was carried out to investigate outliers or hits among the samples. The Z-Score was calculated based on the sample population using a modified Z-Score method which accounts for possible skewed sample population. The modified method uses median and MAD ([…]) instead of average and standard deviation, and a scaling factor (Iglewicz, B. & Hoaglin, D. C. Volume 16: How to Detect and Handle Outliers. The ASQC Basic Reference in Quality Control: Statistical Techniques, 1993). The equation to calculate the modified Z-Score value is as follow: […]
(§2) A M(i) value of >|2.5| (absolute) would classify the sample as outliers or hits. Active samples were denoted as compounds with inhibition values equal to or above 80% and absolute Z-Score above |2.5| for either replicate (n=2 on different plates). Partial active samples were denoted as compounds with inhibition values from 50% to <80%, or absolute Z-Score below |2.5|.

Row | SMILES | Activity: number of organism classes the compound has been found active against
1 | CN(C)CC[N+](C)(C)CCCCCCOc1ccc(/C=C/c2ccc(/C=C/c3ccc(OCCCCCC[N+](C)(C)CCN(C)C)cc3)cc2)cc1 [COE-T62N] | 2

test system: Candida albicans ATCC 90028; assay: Single-dose growth inhibition, Ca; format: cell-based; conditions: ATCC90028, 32 μg/mL single dose, n=2, read-out: Growth inhibition Ca
Description: (§3) Growth inhibition of C. albicans was determined by measuring the absorbance at 530 nm (OD530), while the growth inhibition of C. neoformans was determined by measuring the difference in absorbance between 600 and 570 nm (OD600-570), after the addition of resazurin (0.001 wt. % final concentration) and incubation at 35° C. for additional 2 hrs. The absorbance was measured using a Biotek Synergy HTX plate reader. The relative growth inhibition was calculated for each well, relative to that determined from a negative control (media only) and positive control (bacteria without inhibitors) on the same plate as references. A single dose of 32 μg/mL of COE (final concentration) was used for each test.
as §1, §2

Row | SMILES | inhibition at 32 µg/mL [%]
2 | CN(C)CC[N+](C)(C)CCCCCCOc1ccc(/C=C/c2ccc(/C=C/c3ccc(OCCCCCC[N+](C)(C)CCN(C)C)cc3)cc2)cc1 [COE-T62N] | > 80

test system: Pseudomonas aeruginosa (PAO1) biofilm; assay: Anti-biofilm assay (MBEC plate, crystal violet); format: cell-based; conditions: P. aeruginosa PAO1 biofilm, 1 hour challenge in M9GC
Description: Pseudomonas aeruginosa (PAO1) was grown in Luria-Bertani (LB) broth under shaking (200 rpm) at 37° C. for 16-18 hours. The overnight culture was diluted to 1:200 in M9GC media (M9 medium supplemented with glucose and casamino acids), and 200 μL of diluted culture was added to each well of MBEC plate (Innovotech, Canada). After incubating at 37° C. for 5 hours under shaking (200 rpm), biofilm was formed on the pegs of the MBEC plate. The pegs were then rinsed with 1× phosphate buffered saline (PBS) solution (200 μL per well), and exposed to a two-fold dilution series of COE in M9GC media (200 μL per well). The challenge plate was incubated at 37° C. for 1 hour under shaking (200 rpm), and then the pegs were washed using 200 μL PBS before being dipped into 180 μL 0.1 wt. % crystal violet aqueous solution. After incubating at room temperature for 15 minutes, the pegs were rinsed with PBS twice and transferred to a plate containing 200 μL absolute ethanol in each well for 15 minutes. The biofilm mass was quantified by measuring the absorption of crystal violet/ethanol solution at 550 nm. The minimum biofilm dispersal concentration (MBDC) values were determined as the lowest COE concentration at which biofilm attached on the peg was completely dispersed. The results were repeated in triplicate.

Row | SMILES | Minimum biofilm dispersal concentration [µg/mL]
3 | NC[C@H]1O[C@H](O[C@H]2[C@H](O)[C@@H](O[C@H]3O[C@H](CO)[C@@H](O)[C@H](N)[C@H]3O)[C@H](N)C[C@@H]2N)[C@H](N)C[C@@H]1O [Tobramycin] | >512

test system: Acinetobacter baumannii ATCC 19606; assay: Single-dose growth inhibition, Ab; format: cell-based; conditions: ATCC19606, 32 μg/mL single dose, n=2, read-out: Growth inhibition Ab
Description: (§4) Inhibition of bacterial growth was determined by measuring the absorbance at 600 nm (OD600), using a Tecan M1000 Pro monochromator plate reader. Growth inhibition was calculated for each well, relative to the reference growths determined from a negative control (media only) and positive control (bacteria without inhibitors) incubated in the same plate. A single dose of 32 μg/mL of COE (final concentration) was used for each test.
as §1, §2

Row | SMILES | inhibition at 32 µg/mL [%]
4 | CN(C)CC[N+](C)(C)CCCCCCOc1ccc(/C=C/c2ccc(/C=C/c3ccc(OCCCCCC[N+](C)(C)CCN(C)C)cc3)cc2)cc1 [COE-T62N] | > 80

test system: Escherichia coli FDA control ATCC 25922; assay: Single-dose growth inhibition, Ec; format: cell-based; conditions: ATCC25922, 32 μg/mL single dose, n=2, read-out: Growth inhibition Ec
Description: as §4, §1, §2

Row | SMILES | inhibition at 32 µg/mL [%]
5 | CN(C)CC[N+](C)(C)CCCCCCOc1ccc(/C=C/c2ccc(/C=C/c3ccc(OCCCCCC[N+](C)(C)CCN(C)C)cc3)cc2)cc1 [COE-T62N] | < 50

test system: Klebsiella pneumoniae MDR ATCC 700603; assay: Single-dose growth inhibition, Kp; format: cell-based; conditions: ATCC700603, 32 μg/mL single dose, n=2, read-out: Growth inhibition Kp
Description: as §4, §1, §2

Row | SMILES | inhibition at 32 µg/mL [%]
6 | CN(C)CC[N+](C)(C)CCCCCCOc1ccc(/C=C/c2ccc(/C=C/c3ccc(OCCCCCC[N+](C)(C)CCN(C)C)cc3)cc2)cc1 [COE-T62N] | < 50

test system: Pseudomonas aeruginosa ATCC 27853; assay: Single-dose growth inhibition, Pa; format: cell-based; conditions: ATCC27853, 32 μg/mL single dose, n=2, read-out: Growth inhibition Pa
Description: as §4, §1, §2

Row | SMILES | inhibition at 32 µg/mL [%]
7 | CN(C)CC[N+](C)(C)CCCCCCOc1ccc(/C=C/c2ccc(/C=C/c3ccc(OCCCCCC[N+](C)(C)CCN(C)C)cc3)cc2)cc1 [COE-T62N] | < 50

test system: E. coli K12; assay: MIC by broth microdilution against E. coli K12; format: cell-based; conditions: Escherichia coli, K12; broth microdilution, MHB, 18 hrs; read-out: MIC against E. coli K12
Description: The respective minimum inhibition concentration (MIC) of each COE molecule was determined using a broth microdilution method. Briefly, COEs were diluted via a 2-fold dilution series in 100 μL of either Muller Hinton Broth (MHB) for E. coli and S. aureus or Brain Heart Infusion Broth (BHI) for E. faecalis in a 96-well plate to achieve the desired final concentration. Subsequently, each well was inoculated with 100 μL of 1×10^6 colony forming units (CFU) mL^−1 of the respective microorganism in MHB for E. coli or BHI for E. faecalis to achieve an inoculum density of 5×10^5 CFU mL^−1. The plates were then incubated at 37° C. with shaking (200 rpm) for 18 hrs. […] The results were obtained in triplicate.
The MIC values of COE-D4, COE-D6 and COE-D8 against the reference strain E. coli K12, pathogenic E. coli UT189, and the Gram positive pathogen Enterococcus faecalis OG1RF were determined using a broth microdilution method as described in the general method above. The MICs for E. coli K12 were determined to be 128, 16, and 4 μg mL^−1 for COE-D4, COE-D6, and COE-D8, respectively (FIG. 5a). […] This is not surprising as these two organisms differ in the capsular polysaccharides that they expressed, which are known to hinder the uptake of antimicrobials and mitigate their potency (M. A. Campos, et al., Infect. Immun. 2004, 72, 7107-7114). A K-type capsid comprising α2-8-linked sialic acid is excreted by UT189 and is known to be an important virulence factor for this organism (C. Whitfield, et al., Mol. Microbiol. 1999, 31, 1307-1319; G. G. Anderson, et al., Infect. Immun. 2010, 78, 963-975).

Row | MIC [µg/mL] | SMILES
8 | 64 | CN(C)CC[N+](C)(C)CCCCCCOc1ccc(/C=C/c2ccc(/C=C/c3ccc(OCCCCCC[N+](C)(C)CCN(C)C)cc3)cc2)cc1 [COE-T62N]

test system: Cryptococcus neoformans var. grubii H99; ATCC 208821; assay: Single-dose growth inhibition, Cn; format: cell-based; conditions: ATCC208821, 32 μg/mL single dose, n=2, read-out: Growth inhibition Cn
Description: as §3, §1, §2

Row | SMILES | inhibition at 32 µg/mL [%]
9 | CN(C)CC[N+](C)(C)CCCCCCOc1ccc(/C=C/c2ccc(/C=C/c3ccc(OCCCCCC[N+](C)(C)CCN(C)C)cc3)cc2)cc1 [COE-T62N] | > 80

test system: Staphylococcus aureus MRSA ATCC 43300; assay: Single-dose growth inhibition, Sa; format: cell-based; conditions: 32 μg/mL single dose, n=2, read-out: Growth inhibition Sa
Description: as §4, §1, §2

Row | SMILES | inhibition at 32 µg/mL [%]
10 | CN(C)CC[N+](C)(C)CCCCCCOc1ccc(/C=C/c2ccc(/C=C/c3ccc(OCCCCCC[N+](C)(C)CCN(C)C)cc3)cc2)cc1 [COE-T62N] | > 80
